According to article PMC12718081 (ACS Infectious Diseases, 2025):
Where “and” joins values, the source holds several entries; their conditions need not be identical. Identical values can stand only once. Entries after “also recorded” stand apart in the source; their conditions may differ. Like-named read-outs stand apart in the source and are kept apart here.

How the values were obtained:
[1] = test system: adult schistosomes (male and female worms); assay: Adult worm ex vivo high-content image-based motility assay; format: cell-based, Schistosoma mansoni
Procedure: Adult schistosomes’ motility was determined using a high-content assay previously developed by our group, , with images analyzed in CellProfiler software. More details are provided in the Supporting Information.
(§1) Adult worm ex-vivo high-content assay
“Area” and “False Negative Rate” from the MeasureObjectSizeShape and MeasureObjectOverlap modules, respectively. These measurements were then modeled by a multilevel generalized linear statistical model. The effects of the experimental treatments on […]
(§2) The half-maximal inhibitory
(§3) Windows (GraphPad Software, Boston, MA, USA; www.graphpad.com). […]
with DMSO as a negative control.

in vitro = conditions: human, HepG2 cytotoxicity (CC50)
Procedure: (§4) Next, we conducted a more detailed investigation by performing dose–response assays with each compound on HepG2 hepatic epithelial cells, as the liver is one of the major organs affected in intestinal schistosomiasis.
(§5) More details are provided in the Supporting Information.
as §1
(§6) Male and female worms were placed in 96-well microplates (one worm per well) and incubated […]
(§7) to 72 hours. Brightfield timelapse images (100 images, 0.3-second intervals) were captured from each well before, immediately after, and every 24 hours following compound addition using an ImageXpress Micro Confocal High Content System equipped with a 2x objective. Image analysis was performed through a custom pipeline in CellProfiler software (v. 4.2.1, Windows OS).57 During analysis, the area of each worm and its displacement between consecutive image captures (i.e., images taken at successive time points) were measured using the parameters “Area” and “False Negative Rate” from the MeasureObjectSizeShape and MeasureObjectOverlap modules, respectively. These measurements were then modeled by a multilevel generalized linear statistical model. The effects of the experimental treatments on parasite motility were estimated with the integrated nested Laplace approximation (INLA) method, available in the INLA package of R (https://www.r-inla.org). The half-maximal inhibitory concentration (EC50) of each compound was calculated based on the worms' estimated motility using the […] 4-parameter logistic equation in GraphPad Prism version 9.0.0 for Windows (GraphPad Software, Boston, MA, USA; www.graphpad.com). […]
(§8) either at a fixed concentration (10 µM) or across a range of concentrations (0.0001–300 µM), or with DMSO as a negative control. Two hours before the end of the experiment (t0), a resazurin solution (final concentration: 0.01 mg/mL) was added to each well and the first fluorescence […]
(§9) reader. At the end of the incubation (t1), a second reading was performed. The fluorescence attributed solely to resorufin was measured by subtracting the fluorescence readings at t0 from those at t1. The results were expressed as percentual cell viability considering negative control

[2] = test system: HepG2 hepatic epithelial cells; assay: in vitro; conditions: for Selectivity Index (CC50/EC50), Female: HepG2 CC50 / female worm motility EC50, 48 h; for Selectivity Index (CC50/EC50), Male: HepG2 CC50 / male worm motility EC50, 48 h
Procedure: as §4, §5, §1, §6, §7, §8, §9

Sm.TRPMPZQ (wild-type) = Sm.TRPMPZQ (wild-type) (Schistosoma mansoni, UniProt A0A5K4F0X5); assay: Ca2+ reporter (FLIPR) activation assay, wild-type Sm.TRPMPZQ in HEK293 cells; format: cell-based
Procedure: (§10) The Ca^2+ reporter assay was performed using a Fluorescence Imaging Plate Reader (FLIPR) system, as described in the Supporting Information. […]
as §2, §3
(§11) with DMSO as a negative control. […]
(§12) reader. […] The fluorescence
(§13) Untransfected HEK293 cells were used as a control.
(§14) 10% fetal bovine serum (FBS). […]
(§15) atmosphere containing 5% CO₂. Following incubation, the growth medium was removed and […]
buffer containing 2.5 mM probenecid in HBSS (with Ca²⁺ and Mg²⁺), 20 mM HEPES, 0.3% BSA (Sigma, A7030), and 0.03% L-ascorbic acid (Sigma). Cells were incubated for 40 minutes at 37 °C and subsequently for 20 minutes at room temperature. […]
prepared in assay buffer without dye and probenecid and dispensed into separate flat-bottom 384-well plates. Calcium flux measurements were performed at room temperature using a […]
(§16) instrument (Molecular Devices). Baseline fluorescence was recorded for 20 seconds, followed by the addition of 5 µL of each drug solution, after which fluorescence was measured continuously for 250 seconds. […]

Eg.TRPMPZQ = Eg.TRPMPZQ (Echinococcus granulosus, UniProt W6UVV9); assay: cell-based; conditions: HEK293, Ca2+ reporter, mean ± standard deviation; for Emax: read-out: Bmax, Eg.TRPMPZQ activation
juvenile schistosomes = assay: Microscopy analysis of juvenile morphology and motility (viability score 0-3); conditions: 10 μM, 72 h, Table S1
Fh.TRPMPZQ = assay: Ca2+ reporter (FLIPR) activation assay, Fh.TRPMPZQ in HEK293 cells; format: cell-based, Fasciola hepatica; conditions: at the tested concentrations, data not shown
Procedure: (§17) Finally, selectivity for Sm.TRPMPZQ was assessed by profiling responses on the F. hepatica (Fh.TRPMPZQ) and E. granulosus (Eg.TRPMPZQ) TRPMPZQ orthologs, as well as the schistosome TRPM paralog Sm.TRPMMCLZ, a distinct TRPM channel activated by meclonazepam. Meclonazepam is an anthelmintic benzodiazepine known for its toxicity to juvenile schistosome worms.
as §10, §2, §3, §11, §12, §13, §14, §15
(§18) buffer containing 2.5 mM probenecid in HBSS (with Ca²⁺ and Mg²⁺), 20 mM HEPES, 0.3% BSA (Sigma, A7030), and 0.03% L-ascorbic acid (Sigma). Cells were incubated for 40 minutes at 37 °C and subsequently for 20 minutes at room temperature. A total of seven PZQ derivatives were tested, using racemic PZQ included as a positive control on each assay plate. Drug dilutions were prepared in assay buffer without dye and probenecid and dispensed into separate flat-bottom 384-well plates. Calcium flux measurements were performed at room temperature using a […]
as §16

Sm.TRPMMCLZ = assay: Ca2+ reporter (FLIPR) activation assay, Sm.TRPMMCLZ in HEK293 cells; format: cell-based, Schistosoma mansoni; conditions: at the tested concentrations, data not shown
Procedure: as §17, §10, §2, §3, §11, §12, §13, §14, §15, §18, §16

[3] = Schistosoma mansoni, 0 h, female adult worms, 0 h (immediately after addition), single experiment or geometric mean, read-out: Female worm motility inhibition (EC50)
[4] = Schistosoma mansoni, 0 h, male adult worms, 0 h (immediately after addition), single experiment or geometric mean, read-out: Male worm motility inhibition (EC50)
[5] = Schistosoma mansoni, 0 h, male, 0 h, individual experiments, read-out: Male worm motility inhibition (EC50), values of independent experiments
[6] = Schistosoma mansoni, 24 h, female adult worms, 24 h, single experiment or geometric mean, read-out: Female worm motility inhibition (EC50)
[7] = Schistosoma mansoni, 24 h, male adult worms, 24 h, single experiment or geometric mean, read-out: Male worm motility inhibition (EC50)
[8] = Schistosoma mansoni, 24 h, male, 24 h, individual experiments, read-out: Male worm motility inhibition (EC50), values of independent experiments
[9] = Schistosoma mansoni, 48 h, female adult worms, 48 h, single experiment or geometric mean, read-out: Female worm motility inhibition (EC50)
[10] = Schistosoma mansoni, 48 h, male adult worms, 48 h, single experiment or geometric mean, read-out: Male worm motility inhibition (EC50)
[11] = Schistosoma mansoni, 48 h, male, 48 h, individual experiments, read-out: Male worm motility inhibition (EC50), values of independent experiments
[12] = Schistosoma mansoni, 72 h, female adult worms, 72 h, single experiment or geometric mean, read-out: Female worm motility inhibition (EC50)
[13] = Schistosoma mansoni, 72 h, male adult worms, 72 h, single experiment or geometric mean, read-out: Male worm motility inhibition (EC50)
[14] = Schistosoma mansoni, 72 h, male, 72 h, individual experiments, read-out: Male worm motility inhibition (EC50), values of independent experiments
[15] = female adult worms, 0 h (immediately after addition), single experiment or geometric mean, read-out: Female worm motility inhibition (EC50)
[16] = female adult worms, 24 h, single experiment or geometric mean, read-out: Female worm motility inhibition (EC50)
[17] = male adult worms, 0 h (immediately after addition), single experiment or geometric mean, read-out: Male worm motility inhibition (EC50)
[18] = male adult worms, 48 h, single experiment or geometric mean, read-out: Male worm motility inhibition (EC50)
[19] = male adult worms, 72 h, single experiment or geometric mean, read-out: Male worm motility inhibition (EC50)
[20] = male, 24 h, individual experiments, read-out: Male worm motility inhibition (EC50), values of independent experiments
[21] = male, 48 h, individual experiments, read-out: Male worm motility inhibition (EC50), values of independent experiments
[22] = male, 72 h, individual experiments, read-out: Male worm motility inhibition (EC50), values of independent experiments
[23] = values of independent experiments

Chain of Sm.TRPMPZQ (wild-type) (A0A5K4F0X5 entry or part of it): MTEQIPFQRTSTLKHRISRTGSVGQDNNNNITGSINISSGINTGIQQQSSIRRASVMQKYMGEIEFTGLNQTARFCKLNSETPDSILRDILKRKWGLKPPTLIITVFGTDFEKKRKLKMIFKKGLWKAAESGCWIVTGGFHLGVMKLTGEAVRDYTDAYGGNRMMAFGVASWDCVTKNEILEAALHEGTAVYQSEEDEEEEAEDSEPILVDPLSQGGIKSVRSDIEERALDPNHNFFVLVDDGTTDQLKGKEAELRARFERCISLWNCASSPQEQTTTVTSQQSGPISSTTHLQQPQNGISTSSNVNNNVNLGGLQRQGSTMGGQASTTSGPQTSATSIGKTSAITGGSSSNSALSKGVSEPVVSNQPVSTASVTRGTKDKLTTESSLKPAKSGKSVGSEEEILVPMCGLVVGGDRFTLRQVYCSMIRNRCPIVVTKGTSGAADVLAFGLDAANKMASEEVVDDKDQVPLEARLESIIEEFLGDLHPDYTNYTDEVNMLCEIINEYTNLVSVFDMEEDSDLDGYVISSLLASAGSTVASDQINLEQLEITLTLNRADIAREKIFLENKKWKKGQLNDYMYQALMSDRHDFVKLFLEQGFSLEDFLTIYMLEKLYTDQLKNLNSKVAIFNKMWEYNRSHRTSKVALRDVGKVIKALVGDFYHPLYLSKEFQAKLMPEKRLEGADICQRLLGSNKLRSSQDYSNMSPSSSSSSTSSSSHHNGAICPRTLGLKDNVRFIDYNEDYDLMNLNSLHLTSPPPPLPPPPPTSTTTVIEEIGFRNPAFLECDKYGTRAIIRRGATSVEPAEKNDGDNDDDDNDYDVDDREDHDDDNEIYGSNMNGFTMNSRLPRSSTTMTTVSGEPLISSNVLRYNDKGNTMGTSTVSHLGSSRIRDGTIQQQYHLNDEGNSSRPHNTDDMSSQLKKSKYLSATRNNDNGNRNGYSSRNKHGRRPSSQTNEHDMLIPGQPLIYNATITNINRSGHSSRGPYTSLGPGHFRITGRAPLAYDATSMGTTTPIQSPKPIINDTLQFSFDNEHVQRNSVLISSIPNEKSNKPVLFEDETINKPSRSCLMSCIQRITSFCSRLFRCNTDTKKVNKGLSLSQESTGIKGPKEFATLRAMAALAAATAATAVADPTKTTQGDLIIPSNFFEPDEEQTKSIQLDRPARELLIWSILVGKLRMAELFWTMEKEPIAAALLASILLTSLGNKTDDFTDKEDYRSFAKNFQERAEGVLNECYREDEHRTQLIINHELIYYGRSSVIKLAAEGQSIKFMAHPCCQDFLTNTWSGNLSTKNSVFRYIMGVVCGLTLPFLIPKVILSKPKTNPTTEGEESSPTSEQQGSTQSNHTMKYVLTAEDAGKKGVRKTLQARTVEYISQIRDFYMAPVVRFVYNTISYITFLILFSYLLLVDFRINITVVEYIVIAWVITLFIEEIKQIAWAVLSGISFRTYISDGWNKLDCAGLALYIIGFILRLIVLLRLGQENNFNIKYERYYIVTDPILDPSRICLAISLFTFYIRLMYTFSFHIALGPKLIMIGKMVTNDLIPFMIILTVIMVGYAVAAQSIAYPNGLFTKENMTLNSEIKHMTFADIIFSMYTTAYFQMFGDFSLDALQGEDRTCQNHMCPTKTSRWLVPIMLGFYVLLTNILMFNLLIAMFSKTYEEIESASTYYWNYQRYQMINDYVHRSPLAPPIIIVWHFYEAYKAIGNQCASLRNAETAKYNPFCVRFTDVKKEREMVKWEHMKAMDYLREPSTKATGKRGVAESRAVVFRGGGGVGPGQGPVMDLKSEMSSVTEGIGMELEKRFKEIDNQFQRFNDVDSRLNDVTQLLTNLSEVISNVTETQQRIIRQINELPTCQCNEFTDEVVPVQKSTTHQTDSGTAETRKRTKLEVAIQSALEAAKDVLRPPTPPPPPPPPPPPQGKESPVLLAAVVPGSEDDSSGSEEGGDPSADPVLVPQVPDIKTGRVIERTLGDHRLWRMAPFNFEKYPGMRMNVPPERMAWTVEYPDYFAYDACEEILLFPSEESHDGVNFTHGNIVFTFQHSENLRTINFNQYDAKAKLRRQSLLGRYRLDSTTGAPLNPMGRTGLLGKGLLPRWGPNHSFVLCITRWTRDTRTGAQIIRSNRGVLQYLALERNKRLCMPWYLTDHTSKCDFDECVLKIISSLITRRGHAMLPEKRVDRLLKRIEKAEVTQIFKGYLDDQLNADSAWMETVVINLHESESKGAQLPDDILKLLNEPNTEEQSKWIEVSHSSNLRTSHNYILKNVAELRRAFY
Chain of Eg.TRPMPZQ (W6UVV9 entry or part of it): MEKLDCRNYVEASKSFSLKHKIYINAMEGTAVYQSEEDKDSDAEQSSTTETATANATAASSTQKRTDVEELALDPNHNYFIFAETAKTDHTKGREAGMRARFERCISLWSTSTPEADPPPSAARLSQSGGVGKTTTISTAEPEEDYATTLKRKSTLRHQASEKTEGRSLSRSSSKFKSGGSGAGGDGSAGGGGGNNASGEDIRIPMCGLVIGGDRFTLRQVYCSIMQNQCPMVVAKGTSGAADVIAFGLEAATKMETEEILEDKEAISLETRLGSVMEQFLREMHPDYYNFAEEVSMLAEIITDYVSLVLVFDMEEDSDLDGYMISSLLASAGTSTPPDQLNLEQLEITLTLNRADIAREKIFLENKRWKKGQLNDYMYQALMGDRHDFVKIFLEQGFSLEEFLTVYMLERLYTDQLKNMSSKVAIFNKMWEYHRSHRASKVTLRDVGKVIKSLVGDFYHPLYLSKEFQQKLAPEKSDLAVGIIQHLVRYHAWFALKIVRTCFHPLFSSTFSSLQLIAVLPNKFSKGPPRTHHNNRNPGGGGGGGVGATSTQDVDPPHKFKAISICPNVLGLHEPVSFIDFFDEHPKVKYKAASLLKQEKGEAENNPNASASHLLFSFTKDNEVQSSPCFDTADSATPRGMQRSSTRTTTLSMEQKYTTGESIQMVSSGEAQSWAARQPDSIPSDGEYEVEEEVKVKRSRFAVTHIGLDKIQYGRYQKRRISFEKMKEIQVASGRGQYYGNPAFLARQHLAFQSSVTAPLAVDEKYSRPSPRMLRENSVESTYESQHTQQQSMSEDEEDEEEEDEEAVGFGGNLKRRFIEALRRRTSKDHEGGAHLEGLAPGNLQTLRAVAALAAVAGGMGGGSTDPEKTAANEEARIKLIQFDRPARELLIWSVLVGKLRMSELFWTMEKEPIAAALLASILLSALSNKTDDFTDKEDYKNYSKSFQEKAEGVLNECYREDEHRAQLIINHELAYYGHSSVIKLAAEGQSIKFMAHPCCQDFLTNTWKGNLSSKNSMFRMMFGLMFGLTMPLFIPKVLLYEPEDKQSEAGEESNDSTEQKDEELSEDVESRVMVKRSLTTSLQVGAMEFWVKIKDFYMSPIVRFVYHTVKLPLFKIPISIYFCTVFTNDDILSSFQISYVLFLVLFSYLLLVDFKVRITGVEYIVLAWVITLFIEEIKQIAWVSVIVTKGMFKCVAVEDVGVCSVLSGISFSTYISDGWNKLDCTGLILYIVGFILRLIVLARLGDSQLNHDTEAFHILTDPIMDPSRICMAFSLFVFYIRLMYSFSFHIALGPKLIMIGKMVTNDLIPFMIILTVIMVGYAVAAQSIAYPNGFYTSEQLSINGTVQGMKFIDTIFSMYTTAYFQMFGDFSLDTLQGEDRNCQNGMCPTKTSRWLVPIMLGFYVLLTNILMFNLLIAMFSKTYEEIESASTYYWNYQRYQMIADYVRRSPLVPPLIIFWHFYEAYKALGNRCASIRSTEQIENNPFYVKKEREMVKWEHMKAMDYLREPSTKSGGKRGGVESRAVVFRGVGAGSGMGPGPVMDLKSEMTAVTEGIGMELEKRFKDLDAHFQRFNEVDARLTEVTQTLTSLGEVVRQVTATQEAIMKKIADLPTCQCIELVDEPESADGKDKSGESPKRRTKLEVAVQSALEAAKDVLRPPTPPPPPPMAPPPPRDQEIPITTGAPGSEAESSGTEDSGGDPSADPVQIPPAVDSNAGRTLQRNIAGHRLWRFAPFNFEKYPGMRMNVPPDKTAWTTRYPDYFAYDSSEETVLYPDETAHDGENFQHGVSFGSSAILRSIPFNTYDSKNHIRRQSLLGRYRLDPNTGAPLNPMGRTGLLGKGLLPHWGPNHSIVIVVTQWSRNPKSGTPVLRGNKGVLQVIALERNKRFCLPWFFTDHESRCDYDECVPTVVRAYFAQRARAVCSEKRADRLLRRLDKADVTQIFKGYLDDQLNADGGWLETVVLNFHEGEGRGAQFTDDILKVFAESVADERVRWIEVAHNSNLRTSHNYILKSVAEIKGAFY

SMILES	EC50 [1, 3] [µM]	EC50 [1, 4] [µM]	EC50 [1, 5] [µM]	EC50 [1, 6] [µM]	EC50 [1, 7] [µM]	EC50 [1, 8] [µM]	EC50 [1, 9] [µM]	EC50 [1, 10] [µM]	EC50 [1, 11] [µM]	EC50 [1, 12] [µM]	EC50 [1, 13] [µM]	EC50 [1, 14] [µM]	EC50 [1, 15] [µM]	EC50 [1, 16] [µM]	EC50 [1, 17] [µM]	EC50 [1, 18] [µM]	EC50 [1, 19] [µM]	EC50 [1, 20] [µM]	EC50 [1, 21] [µM]	EC50 [1, 22] [µM]	also measured
O=C(C1CCCCC1)N1CC(=O)N2CCc3ccc(-n4cc(C5=CCCCC5)nn4)cc3C2C1 (centres unmarked) [Compound 5b]	101	32.7	31.6	96.2	47	50.4	95	49.2	54.2	89.1	40.5	44.7	101	96	33	49	40	43.8	44.6	36.6	EC50 ([1]; Schistosoma mansoni, female, 0-72 h, read-out: EC50 against female adult worms (motility), span over incubation times): > 30 µM; EC50 ([1]; Schistosoma mansoni, male, 0-72 h, read-out: EC50 against male adult worms (motility), span over incubation times): > 30 µM; EC50 ([1]; female adult worms, 72 h, single experiment or geometric mean, read-out: Female worm motility inhibition (EC50)): 89 µM; CC50 at 48 h (in vitro): 28.5 µM; CC50 at 48 h (in vitro; [23]): 28.7 µM; Selectivity Index (CC50/EC50), Female [2]: 0.3; Selectivity Index (CC50/EC50), Male [2]: 0.6; Selectivity Index (SI), sex not specified ([2]; HepG2 vs adult worms, 48 h): < 1; Bmax, wild-type Sm.TRPMPZQ activation (Sm.TRPMPZQ (wild-type)): No activity; EC50 for wild-type Sm.TRPMPZQ activation (Sm.TRPMPZQ (wild-type); 0.001 to 100 μM): failed to activate; also recorded: No activity; EC50 for Eg.TRPMPZQ activation (Eg.TRPMPZQ): No signal; Emax (Eg.TRPMPZQ): 10.4 ± 0.31%; number of juvenile worms with viability score 0 (juvenile schistosomes): 21; number of juvenile worms with viability score 1 (juvenile schistosomes): 1; number of juvenile worms with viability score 2 (juvenile schistosomes): 3; number of juvenile worms with viability score 3 (juvenile schistosomes): 7
O=C(C1CCCCC1)N1CC(=O)N2CCc3ccc([N+](=O)[O-])cc3C2C1 (centres unmarked) [Compound 2, 9-NO2–PZQ]	27.7	10.7	10	28.8	14.3	10.3	29.1	15.9	11.6	30	15.4	11.9	27.7	29	11	16	15	19.8	21.7	19.9	EC50 ([1]; female adult worms, 48 h, single experiment or geometric mean, read-out: Female worm motility inhibition (EC50)): 29 µM; EC50 ([1]; male adult worms, 24 h, single experiment or geometric mean, read-out: Male worm motility inhibition (EC50)): 14 µM; CC50 at 48 h (in vitro): 368 µM; CC50 at 48 h (in vitro; [23]): 354 µM; Selectivity Index (CC50/EC50), Female [2]: 12.7 and 13; Selectivity Index (CC50/EC50), Male [2]: 23.1 and 23; EC50 (Sm.TRPMPZQ (wild-type); 0.001 to 100 μM): 13.5 ± 0.49 µM; Emax (Sm.TRPMPZQ (wild-type); read-out: Bmax, wild-type Sm.TRPMPZQ activation): 66.6 ± 1.98%; Emax (Eg.TRPMPZQ): 114 ± 10.5%; activation of Fh.TRPMPZQ (Fh.TRPMPZQ): did not activate; activation of Sm.TRPMMCLZ (Sm.TRPMMCLZ): did not activate; number of juvenile worms with viability score 0 (juvenile schistosomes): 70; number of juvenile worms with viability score 1 (juvenile schistosomes): 3; number of juvenile worms with viability score 2 (juvenile schistosomes): 7; number of juvenile worms with viability score 3 (juvenile schistosomes): 74
